Laboratory results: US11229635B2, “Method of treating fibrosis” (BCN Biosciences L.L.C., priority 2016, dated 2022)

Tests used:
[1] = tested on: canonical Wnt-β catenin signaling; experiment: TCF/LEF luciferase reporter assay in HEK293 cells; type: cell-based; conditions: 10 mM, 24 h, positive control
Protocol: LiCl (10 mM) treatment was used as positive control for luciferase activity. Luciferase activity was determined after 24 h using a Dual-Luciferase® Reporter Assay System (Promega) as per manufacturer's protocol. HEK293 cells containing a FOPFlash construct were used as a negative control.

[2] = tested on: cancer cell lines (leukemia, breast, CNS, colon, melanoma, non-small cell lung, ovarian, prostate, renal); experiment: NCI cancer cell line growth screen (percent growth over 48 h, sulforhodamine B); type: cell-based
[3] = tested on: blood platelets; experiment: Platelet count in normal mice; type: in vivo, mouse; conditions: eight days oral or subcutaneous, 75-800 mg/kg/day
Protocol: Normal mice were treated with BCN057 for eight days by oral administration or subcutaneous injection. Dose groups included 75 mg/kg/day, 200 mg/kg/day, 400 mg/kg/day, 500 mg/kg/day, and 800 mg/kg/day

[4] = tested on: plasma cytokines; experiment: Mouse Cytokine panel ELISA Array of plasma after irradiation; type: in vivo; conditions: irradiated mice (7 G), 200 mg/kg SC Day 1 to 7, blood Day 8
Protocol: Mice were irradiated on Day 0. Animals were dosed with drug for 7 consecutive days (Day 1 to 7) at 200 mg/kg SC, with terminal blood collection on Day 8. Plasma from 3 mice was pooled for each condition Y axis represents relative absorbance units.
The plasma was tested with the Mouse Cytokine panel ELISA Array panel—by SIGNOSIS™

[5] = tested on: hematopoietic system; experiment: Recovery of the hematopoietic system following 6 Gy irradiation; type: in vivo; conditions: C3H mice, s.c. at 24, 48, 72, 96, and 120 hrs
Text: Recovery of the hematopoietic system following 6 Gy irradiation of C3H mice (n=4) with BCN057 treatment (s.c.) at 24, 48, 72, 96, and 120 hrs. RBC- red blood cells (M/uL), HB-hemoglobin (g/dL), and HCT-hematocrit (%). B: recovery of the hematopoietic system following 6 Gy irradiation of C3H mice (n=4) with BCN057 treatment (s.c.) at 24, 48, 72, 96, and 120 hrs. WBC-white blood cells, NE-neutrophils, LY-lymphocytes. C: platelet (PLT) recovery following 6 Gy irradiation of C3H mice (n=4) with BCN057 treatment (s.c.) at 24,48,72,96, and 120 hrs; p<0.05 with a 1-tail, Student t-test.

[6] = Solubility of BCN057 in aqueous formulations; type: physicochemical
Protocol: Several formulations were developed to solubilize BCN057 in aqueous solution at physiologically compatible pHs. These include 100 mM methanesulfonic acid/10% povidone (PVP); 100 mM MSA/2% benzyl alcohol/2% N-methylpyrrolidone (NMP); and, 100 mM MSA/10% ethanol/1% Poloxamer 188.
Several suitable formulations were developed for intravenous, subcutaneous and oral delivery of therapeutic levels of BCN057. These include 30 wt % Captisol (SBE-beta-CD) and 100 mM MSA at pH 4.1 (adjusted with 1.0 N NaOH).

[7] = tested on: bone marrow hematopoietic stem cells (HSCs); experiment: Total body irradiation survival (hematopoietic suppression); type: in vivo, C3H/HeN mice; conditions: 7.75 Gy TBI, 30 day; male 50 mg/kg, female 25 mg/kg C3H/HeN mice
Protocol: FIG. 8A-C: (A) Kaplan Meier Plot of Male C3H/HeN mice 7.75Gy 30 Day TBI (n=30) 50 mg/kg BCN057. (B). Kaplan Meier Plot of Female C3H/HeN mice 7.75Gy 30 Day TBI (n=10) 25 mg/kg BCN057. (C) Cytokine Profile in Plasma Male C3H/HeN mice 7.75Gy TBI Day 8 receiving BCN057.
7.75 Gy radiation is used to ablate bone marrow hematopoietic stem cells (HSCs) in these strains of mice. […] Lethality from bone marrow suppression occurs in the 14-25 day region due to the life cycle of approximately 2 weeks for RBC and inability to replace them without HSCs
7.73 Gy radiation is used to ablate bone marrow HSCs in the C3H strain of mice.

[8] = tested on: radiation dermatitis (erythema, edema); experiment: Draize scoring of dermal radiation sites, dermal dosing 10 mg/mL Day 0 to 6; type: in vivo; conditions: Avg of Days 1-6 and 8

Structure (SMILES) | luciferase activity [1] | cancer cell growth vs control (no drug) ([2]; 10 uM, 48 h, Leukemia, prostate and kidney cancer) | cancer cell growth vs untreated control ([2]; breast cancer, lung carcinoma, prostate, CNS, melanoma, ovarian, renal and colon cancer lines (FIG. 2)) | platelet production [3] | plasma cytokine profile [4] | hematopoietic recovery (RBC, HB, HCT, WBC, NE, LY, PLT) [5] | solubility ([6]; 30 wt % Captisol (SBE-beta-CD) and 100 mM MSA, up to pH 4.1) | solubility ([6]; addition of 100 mM lactic acid to the MSA mixtures) | lethality from bone marrow suppression [7] | Average Draize score Edema [8] | Average Draize score Edema Site 2 [8] | Average Draize score Edema Site 3 [8] | Average Draize score Edema Site 4 [8] | Average Draize score Edema Site 5 [8] | Average Draize score Edema Site 6 [8] | Average Draize score Erythema Site 2 [8] | Average Draize score Erythema Site 3 [8] | Average Draize score Erythema Site 4 [8] | Average Draize score Erythema Site 5 [8] | Average Draize score Erythema Site 6 [8]
[Cl-].[Li+] [LiCl, reference compound] | significantly increased luciferase activity | – | – | – | – | – | – | – | – | – | – | – | – | – | – | – | – | – | – | –
COc1ccc2cc(-c3nc4ccc(C)cn4c3NCc3ccco3)c(=O)[nH]c2c1 [BCN057, 3-(3((furan-2-ylmethyl)ammo)-6-methylimidazo[1,2-α]pyridine-2-yl)-6-methoxyquinolin-2(1H)-one] | – | inhibitory | susceptible | induces platelet production in a dose dependent fashion | restores the cytokine profile to similar to that of the control | evidence of improving hematopoietic recovery | excellent solubility | improved solubility | sufficient to prevent lethality from bone marrow suppression | 0 | 0 | 0.5714 | 0 | 0.4286 | 0 | 0.1429 | 1.286 | 0.1429 | 1.429 | 0.4286
